Experimental data from patent publication EP0189971A2, “Composition containing a thiadiazole derivative and method for treating plants against bacteria” (PALIMPORT LTD., priority 1985, dated 1986).
Read-outs that look alike come from different tables or passages of the source.

Key:
[1] = test system: Pseudomonas tomato; experiment: Preventative foliage spraying of tomato seedlings in greenhouse; assay type: in vivo; settings: for Average level of ill seedlings: Cupric acetate 0.15 %, levels 0-5
Description: The trials were carried out against bacterial diseases in the following crops: • a. In pepper - Bacterial spot of pepper (Xanthomonas vesicatoria). • b. In tomatoes - Bacterial specic of tomato (Pseudomonas tomato). • c. In cauliflower - Black rot (Xanthomonas camoestris). • 2. […].
In trials that were carried out in the greenhouse, plants at age of 3 - 5 leaves that were grown in "speedling system", were used. Plants were allowed to grow in the original trays without contact between them.
About 48 hours before the infection, the bacterial pathogen was transferred (for multiplication) to a suitable growth medium (see materials and methods of para I hereinbefore)at optimal temperature until all the medium was covered by bacteria. Then a suspension of bacteria at concentration of 1 x 10' - […] per cm^2 was prepared. The bacterial suspension was sprayed to runoff with a hand sprayer on to the leaves of the test plants. Spraying was made on dry leaves with the addition of carborundum to the spray solution in order to ensure better infection. In trials where the efficacy of the treatments was evaluated in preventative treatments, the application was given a few hours before the bacterial infection.
In the preventative treatments, the products were applied a few hours before the bacterial infection. In the curative treatments, the application was carried out 20 hours after bacterial infection. After application, when plants dried out they were transferred to a fog chamber with controlled conditions.
In trials that were carried out in the greenhouse, the plants were transferred after the application and infection, to control conditions of fogginess and suitable temperatures for bactena, till the end of the trial.
Infection was evaluated in the seedlings according to the following key: 0 = healthy seedling, without symptoms of disease, 5 = complete coverage of the seedling with spots of disease, or dead seedling. The intermediate degrees were given according to the severity of the disease in the leaves.
In tomatoes, several trials were carried out in greenhouse under conditions of fog chamber and artificial infection in order to evaluate the efficacy of Terrazole (trade mark) and copper, in different rates and combinations, in preventing and controlling bacterial diseases specic of tomato caused by Pseudomonastomato.
In one trial, various treatments were examined in prevention of disease, as appears in Table IX.

[2] = test system: X. campestris; settings: for Percent of infected seedlings: cupric acetate 0.1 %
Description: (§1) In this method, the efficacy of the disinfection is examined by a bioassay. After seed disinfection, the seeds are dried and sown in the soil, and kept in a humid cell with suitable temperature. The efficacy of the treatment is determined by the level of infestation in the seedlings.
Trials were carried out in seeds of cabbage and cauliflower infested with Xanthomonas camoestris. […] Seeds were dipped in all treatments for 10 to 20 minutes at temperatures of 25°C and 45°C.
The efficacy of the disinfection process was checked in a bio assay system.

[3] = test system: Pseudomonas tomato, Xanthomonasvesicatoria, X. translucens, X. camoestris; settings: 0.8% cupric acetate in aqueous solution; each of the four species
Description: G. Evaluation of product activity by direct contact with the bacteria: • The efficacy of a number of products by a direct contact with the bacteria was checked as follows: Preparation of solutions of different concentrations of the examined products. Soaked bacteria suspension in the solutions for a period of 10 minutes. Filtration of the solution containing bacteria through milipore disc, so that the bacteria are concentrated on the disc. Rinsing the disc with distilled water. Placing the disc in a measured amount of water with 0.1 % agar, and shaking the disc in this solution in order to transfer the bacteria from the disc to the solution. Making 10x dilutions and direct placing on suitable medium (see section F1 above).
In this trial, 11 concentrations of cupric-acetate in aqueous solution were checked, from 0.001 - 0.8% by weight. […] All treatments were checked against the four species of bacteria mentioned.

[4] = test system: Pseudomonas tomato; settings: cupric acetate 0.1 %
Description: In all trials, seed disinfection was carried out by dipping the seeds in different chemical solutions. The variable factors were: • 1. Different times of dipping: 10, 20, 30 and 60 minutes. • 2.. Different temperatures of dipping: room temperature (20°C), and a higher temperature (45°C).
as §1
In tomatoes, disinfection trials were carried out against two bacterial diseases. Most of the work was done in order to examine the efficacy of the mixtures in controlling bacterial specic of tomato caused by Pseudomonas tomato. Later on some trials were carried out against a relatively new disease in Israel - "rotten pith" caused by P. coruoata. Trial 7
Also, different dipping times and temperatures were checked. Efficacy of disinfection was evaluated by assessing the disease appearance in the seedlings which was caused by infection of the treated seeds.

[5] = test system: X. translucens; settings: for Bacteria per gr. seeds: cupric acetate 0.1%, infected seeds
Description: In this method, live bacterial pathogens that survived the seed disinfection, were counted. Treated seeds were dried by vaporization. Five grams of dried seeds from each treatment were ground in a grinder of 20 mesh and transferred to a solution containing 0.1% agar in water and were shaken for 30 minutes. From each sample, 10x dilutions were prepared. From each of the various dilutions, 0.1 ml was taken and placed in a suitable medium in a petri-dish, with a Drigalski stick. After 4 days of incubation at temperature of 27°C, colonies of the bacterial pathogens were counted in each petri-dish.
The assessment of efficacy was carried out by counting of the number of bacteria that remained alive in the seeds after the disinfection and in a bio-assay system. (See Materials and Methods).
In this trial the efficacy of the products in disinfecting wheat seeds was tested at various periods of time from 5 to 60 minutes. Disinfected seeds were compared with seeds treated with water (check) and with seeds that were defined in laboratory as seeds clean from the pathogen. Efficacy of the treatments was measured by counting the amount of bacteria that remained alive in the seeds. The trial was carried out in five replicates.

In the case of cupric acetate, the “Percent of ill seedlings” value ([1]; Cupric acetate 0.1 %, preventative spraying, ten days after the infection) is reported as 34.2%, the “Average level of ill seedlings” value ([1]; 9 days after infection) is reported as 0.30 and the “Average level of ill seedlings” value ([1]; 11 days after infection) is reported as 1.85. The “Average level of ill seedlings” value ([1]; 13 days after infection) was 2.80, the “Percent of infected seedlings” value ([2]; 25 °C 10 min.) was 78.6% and the “Percent of infected seedlings” value ([2]; 25 °C 20 min.) was 56.0%. The “Percent of infected seedlings” value ([2]; 40 °C 10 min.) was 45.0%, the “Percent of infected seedlings” value ([2]; 40 °C 20 min.) was 35.0% and the disease control ([2]; cupric acetate, at any of the trial conditions) was ≤ 38%. For the same substance, the bacteria remained alive [3] was “about 10^3 bacteria per cm^2 of water”, the “% Infected plants” value ([4]; dipping 10 minutes, 25 °C) was 28.0% and the “Improvement in control, in comparison with the untreated control” value (from here on “Improvement in control, in comparison”) ([4]; dipping 10 minutes, 25 °C) was 37.8. The “% Infected plants” value ([4]; dipping 10 minutes, 40 °C) was 17.0%, the “Improvement in control, in comparison” value ([4]; dipping 10 minutes, 40 °C) was 62.2 and the “% Infected plants” value ([4]; dipping 20 minutes, 25 °C) was 27.5%. The “Improvement in control, in comparison” value ([4]; dipping 20 minutes, 25 °C) was 38.9, the “% Infected plants” value ([4]; dipping 20 minutes, 40 °C) was 14.0% and the “Improvement in control, in comparison” value ([4]; dipping 20 minutes, 40 °C) was 68.9. The “Bacteria per gr. seeds” value ([5]; 5 minutes) was 6040 b per gr. seeds, the “Bacteria per gr. seeds” value ([5]; 10 minutes) was 2920 b per gr. seeds and the “Bacteria per gr. seeds” value ([5]; 20 minutes) was 496 b per gr. seeds. For the same substance, the “control in comparison with the untreated seeds” value ([5]; cupric acetate, dipping 20 minutes) was 94%.
